“Also recorded” adds a separate entry of the source.

Test [1] relates to WT mice. Briefly: Survival after cecal ligation and puncture (CLP). The format is in vivo. As to conditions: 100 mg/kg subcutaneous every 12h (Figure 5F). Here is the method:
(§1) Nat Protoc 4, 31-36 (2009). Briefly, an approximately 1 cm abdominal midline incision was made, followed by exposure of the cecum. After ligation, the cecum was punctured three times through and through with a 19-gauge needle and a small portion of feces was pressed out. After repositioning of the bowel, the abdomen was closed in layers using surgical sutures and metallic clips, and 1 ml of 0.9% NaCl (37° Celsius) was slowly injected subcutaneously for resuscitation. For induction of lethal endotoxemia, mice received an intraperitoneal (ip) injection of 40 mg/kg LPS. Survival was monitored at least every 6 h for 7 days after which the experiments were terminated. For pharmacologic proof-of-principle experiments involving II17a, mice received 100 µg/kg PCT and/or 2.5 µg/kg antibody treatment ip 30 minutes before and 12h after induction of septic shock through 40 mg/kg LPS ip. Non-specific IgG was used at equal concentrations. Olcegepant (100 mg/kg) was administered intraperitoneally or subcutaneously as indicated. […]
(§2) The number of samples was chosen according to established standards providing sufficient statistical power to enable the detection of biologically relevant differences in animal models. Data were analyzed by two-tailed Student's t-test using Excel software. […]

Test [2] relates to bone marrow-derived macrophages. Description: Cytokine mRNA expression (qRT-PCR) in primary macrophages stimulated with LPS and/or PCT. The format is cell-based, mouse. The settings on record: macrophages in vitro, LPS plus PCT, mRNA levels (Figure 5C). The method, then: RNA was isolated using the RNeasyMini kit (Qiagen). For qRT-PCR expression analysis, 1 µg of RNA was reverse transcribed using SuperScriptIII (Invitrogen) according to the manufacturer's instructions. qRT-PCR analysis was performed using predesigned TaqMan gene expression assays (Applied Biosystems) and Gapdh as internal control.
Primary macrophages were generated from bone marrow cells cultured in DMEM supplemented 10% FCS and 40 ng/ml M-CSF for 7 days. Primary DC were generated from mouse bone marrow cells which were grown in RPMI 1640 medium with 10% FBS supplemented with 100 U/ml GM-CSF and 20 ng/ml IL-4 for 7 days. For γδT cell preparations, spleens were dissected and processed through a 40-µm filter, followed by lysis of erythrocytes. γδT lymphocytes were subsequently purified using magnetic labeled beads (Miltenyi Biotec, #130-092-125). For the generation of primary osteoblasts, bone marrow cells were differentiated for 10 days in the presence of 25 µg/ml ascorbic acid and 5 mM β-glycerophosphate as described previously (Keller, J., et al. Calcitonin controls bone formation by inhibiting the release of sphingosine 1-phosphate from osteoclasts. Nat Commun 5, 5215 (2014)). […]
A general note: In qPCR the cycle at which signal appears reflects the starting amount.

For a further test, the system named is αCgrp-deficient mice. Briefly: Survival in lethal endotoxemia (40 mg/kg LPS ip). The format is in vivo. The settings on record: 100 mg/kg ip immediately before 40 mg/kg LPS (Figure 5H). Here is the method: as §1, §2
The subject of the next test is Calca-deficient mice. Briefly: Survival in lethal endotoxemia (40 mg/kg LPS ip). Format: in vivo. The settings on record: 100 mg/kg ip co-administered with (immediately before) 40 mg/kg LPS ip (Figure 5G). The method, then: as §1, §2
Test [3] concerns WT mice. Briefly: Survival in lethal endotoxemia (40 mg/kg LPS ip), monitored for 7 days. Format: in vivo. Here is the method:
Nat Protoc 4, 31-36 (2009). Briefly, an approximately 1 cm abdominal midline incision was made, followed by exposure of the cecum. After ligation, the cecum was punctured three times through and through with a 19-gauge needle and a small portion of feces was pressed out. After repositioning of the bowel, the abdomen was closed in layers using surgical sutures and metallic clips, and 1 ml of 0.9% NaCl (37° Celsius) was slowly injected subcutaneously for resuscitation. For induction of lethal endotoxemia, mice received an intraperitoneal (ip) injection of 40 mg/kg LPS. Survival was monitored at least every 6 h for 7 days after which the experiments were terminated. For pharmacologic proof-of-principle experiments involving II17a, mice received 100 µg/kg PCT and/or 2.5 µg/kg antibody treatment ip 30 minutes before and 12h after induction of septic shock through 40 mg/kg LPS ip. Non-specific IgG was used at equal concentrations. Olcegepant (100 mg/kg) was administered intraperitoneally or subcutaneously as indicated. For in vivo experiments involving expression, histological, and FACS analyses, mice were challenged with a sublethal dose of LPS (10 mg/kg ip). The use of in vivo experiments, especially CLP, was kept to a minimum throughout the study (replace, reduce, refine) in accordance to current recommendations for animal welfare in sepsis research (Lilley 2015). Experimental procedures were performed with approval from the animal care committees of the University Medical Center Hamburg-Eppendorf and the Behörde für Umwelt und Gesundheit der Hansestadt Hamburg.
The number of samples was chosen according to established standards providing sufficient statistical power to enable the detection of biologically relevant differences in animal models. Data were analyzed by two-tailed Student's t-test using Excel software. In the case of multiple comparisons, Bonferroni correction was used. Survival analyses were performed using the log-rank-test. If not indicated otherwise, all data are reported as mean ± SD. p<0.05 was considered statistically significant.

The test system of test [4] is WT mice. Description: Serum cytokine levels (ELISA) after sublethal LPS challenge. As to conditions: 10 h after 10 mg/kg LPS, single injection of 100 mg/kg ip (Figure 5D). The format is in vivo. Here is the method:
as §1, with “indicated. For in vivo experiments involving expression, histological, and FACS analyses, mice were challenged with a sublethal dose of LPS (10 mg/kg ip).” for “indicated.”
Serum was obtained by cardiac puncture. […] Serum concentrations of PCT, CT and CGRP were measured by ELISA (Kamiya #KT-25866, Bachem #S-1488.0001 BA, S-1167.0001 BA).
(In general: In an ELISA, binding on a coated surface is turned into a signal by an enzyme label.)

For the molecule `NCCCC[C@H](NC(=O)[C@@H](Cc1cc(Br)c(O)c(Br)c1)NC(=O)N1CCC(N2Cc3ccccc3NC2=O)CC1)C(=O)N1CCN(c2ccncc2)CC1` [olcegepant, N-((1R)-2-(((1S)-5-amino-1-((4-(pyridin-4-yl)piperazin-1-yl)carbonyl)pentyl)amino)-1-(3,5-dibromo-4-hydroxybenzyl)-2-oxoethyl)-4-(2-oxo-1,4-dihydroquinazolin-3(2H)-yl)piperidine-1-carboxamide], the mortality entry with WT mice [1] is “significantly reduced”; in the test on WT mice [3] (100 mg/kg ip immediately before 40 mg/kg LPS ip (Figure 5E)), “significant reduction of mortality”; in the test with WT mice [3] (single 100 mg/kg ip 4h after 40 mg/kg LPS ip, into the inflamed peritoneal cavity (Figure 12)), “increased mortality; also recorded: decreased survival”. For the same molecule, the “LPS-dependent stimulatory effect of PCT on II1b expression” value in test [2] is listed as “inhibited”. Moreover, the “LPS-dependent stimulatory effect of PCT on II6 expression” value in test [2] was “inhibited”. Moreover, the mortality rates entry in the test with αCgrp-deficient mice was “significantly improved mortality rates”. Moreover, the survival entry is “did not further improve the survival” in the test on Calca-deficient mice; “significantly prolonged survival” in the test on WT mice [3] (intermittent subcutaneous treatment 100 mg/kg every 12 hours, starting 4h after ip LPS challenge (Figure 5I)); “trend towards improved survival” in the test with WT mice [3] (single subcutaneous injection 100 mg/kg 4h after ip LPS challenge (Figure 5I)); “favorable effect” in the test with WT mice [3] (subcutaneous 4h before LPS (40 mg/kg ip), prophylactic (Figure 5J)). The II1b levels entry in the test on WT mice [4] is given as “significant reduction”. The II17a levels result with WT mice [4] is reported as “significant reduction”.

The values are drawn from patent EP3366286A1, “COMPOUNDS FOR TREATING SEPSIS” (Keller, Johannes, priority 2017, dated 2018).
